Measurements from patent US20260092074A1, “Annelated Pyridines as Steroidogenesis Inhibitors, Preparation Method and Use Thereof” (Guangzhou Vinnocent Pharmaceutical Limited, priority 2022, published 2026).

Experiments:
human CYP11B1 = target: T1, human CYP11B1 (Homo sapiens, UniProt P15538); test: Inhibition of hCYP11B1 in transfected V79 cells; assay type: cell-based; conditions: hamster V79 cells expressing human CYP11B1; substrate 11-deoxycortisol 200 nM
T1 construct: expressed in transfected cells
T1 sequence (P15538 25-503): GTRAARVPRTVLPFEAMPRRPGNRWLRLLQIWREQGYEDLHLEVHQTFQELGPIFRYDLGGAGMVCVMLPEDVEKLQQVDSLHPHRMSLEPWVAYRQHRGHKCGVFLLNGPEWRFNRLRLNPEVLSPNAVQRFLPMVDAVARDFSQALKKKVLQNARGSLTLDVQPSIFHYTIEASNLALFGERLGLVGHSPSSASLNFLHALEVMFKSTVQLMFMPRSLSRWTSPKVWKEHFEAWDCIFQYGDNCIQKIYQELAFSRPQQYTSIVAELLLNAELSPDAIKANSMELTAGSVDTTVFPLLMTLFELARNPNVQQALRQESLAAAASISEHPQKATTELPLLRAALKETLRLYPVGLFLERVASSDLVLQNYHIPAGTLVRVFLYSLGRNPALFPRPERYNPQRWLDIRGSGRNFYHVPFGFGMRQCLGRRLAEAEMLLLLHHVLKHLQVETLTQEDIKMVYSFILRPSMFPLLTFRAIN
Procedure: (§1) Genes of human CYP11B1 and rat NADPH-P450 reductase were transfected into hamster V79 cells using a lentivirus vector, and stably-expressing cell lines were selected by taking advantages of the associated puromycin-resistance gene. Cultured cells were diluted and seeded in a 96-well plate with an amount of approximately 10,000 per well. After pre-incubation with suitable concentrations of the test compounds for 2 hours, 11-deoxycortisol of 200 nM was added as the substrate to initiate the catalytic reaction. After further incubation for 30 minutes, it was quenched with ethyl acetate. Subsequently, the substrate and product(s) were quantified using LC-MS/MS or HPLC at 260 nm, and the IC50 values were calculated according to inhibitory percentage.

human CYP11B2 = target: T2, human CYP11B2 (Homo sapiens, UniProt P19099); test: Inhibition of hCYP11B2 in transfected V79 cells; assay type: cell-based; conditions: hamster V79 cells expressing human CYP11B2; substrate 11-deoxycorticosterone 200 nM
T2 construct: expressed in transfected cells
T2 sequence (P19099 25-503): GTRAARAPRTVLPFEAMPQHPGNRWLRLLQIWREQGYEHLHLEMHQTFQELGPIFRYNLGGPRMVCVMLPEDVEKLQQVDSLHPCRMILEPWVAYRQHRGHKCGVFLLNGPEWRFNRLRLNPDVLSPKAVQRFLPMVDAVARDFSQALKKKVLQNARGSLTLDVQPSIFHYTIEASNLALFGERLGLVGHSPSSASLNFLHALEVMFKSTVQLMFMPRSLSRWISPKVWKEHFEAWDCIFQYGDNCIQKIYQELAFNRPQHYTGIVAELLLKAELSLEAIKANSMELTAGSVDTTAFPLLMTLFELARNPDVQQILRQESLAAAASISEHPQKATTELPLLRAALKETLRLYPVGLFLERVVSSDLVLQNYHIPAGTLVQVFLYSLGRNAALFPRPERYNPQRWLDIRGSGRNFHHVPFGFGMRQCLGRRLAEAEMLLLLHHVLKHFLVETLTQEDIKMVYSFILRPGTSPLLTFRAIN
Procedure: as §1, with “CYP11B2” for “CYP11B1”, “11-deoxycorticosterone” for “11-deoxycortisol”

| IC50 (human CYP11B1) | IC50 (human CYP11B2) | SMILES |
| --- | --- | --- |
| 73 nM | 1.3 nM | N#Cc1ccc(-c2cncc3c2SCCN3S(=O)(=O)C2CN(C(=O)c3cccc(F)c3)C2)cc1 [S69, 4-(4-((1-(3-Fluorobenzoyl)azetidin-3-yl)sulfonyl)-3,4-dihydro-2H-pyrido[4,3-b][1,4]thiazin-8-yl)benzonitrile] |
| 19 nM | 0.4 nM | N#Cc1ccc(-c2cncc3c2SCCN3S(=O)(=O)C2CN(Cc3cccc(C#N)c3)C2)cc1 [S81, 3-((3-((8-(4-Cyanophenyl)-2,3-dihydro-4H-pyrido[4,3-b][1,4]thiazin-4-yl)sulfonyl)azetidin-1-yl)methyl)benzonitrile] |
| 3.1 nM | 0.1 nM | N#Cc1ccc(-c2cncc3c2SCCN3S(=O)(=O)c2cccc(C#N)c2)cc1 [S20, 3-((8-(4-Cyanophenyl)-2,3-dihydro-4H-pyrido[4,3-b][1,4]thiazin-4-yl)sulfonyl)benzonitrile] |
| 69 nM | 7 nM | N#Cc1ccc(-c2cncc3c2OCCN3S(=O)(=O)C2CN(S(=O)(=O)c3ccc(C#N)cc3)C2)cc1 [O114, 4-((3-((8-(4-Cyanophenyl)-2,3-dihydro-4H-pyrido[4,3-b][1,4]oxazin-4-yl)sulfonyl)azetidin-1-yl)sulfonyl)benzonitrile] |
| 169 nM | 27 nM | COc1cccc(C(=O)N2CC(S(=O)(=O)N3CCOc4c(-c5ccc(C#N)cc5)cncc43)C2)c1 [O112, 4-(4-((1-(3-Methoxybenzoyl)azetidin-3-yl)sulfonyl)-3,4-dihydro-2H-pyrido[4,3-b][1,4]oxazin-8-yl)benzonitrile] |
| 453 nM | 679 nM | N#Cc1ccc(-c2cncc3ncn(C4CC4)c23)cc1 [N7, 4-(1-Cyclopropyl-1H-imidazo[4,5-c]pyridin-7-yl)benzonitrile] |
| 0.66 nM | 0.41 nM | N#Cc1ccc(-c2cncc3c2OCCN3S(=O)(=O)c2ccc(Cl)cc2)cc1 [O6, 4-(4-((4-Chlorophenyl)sulfonyl)-3,4-dihydro-2H-pyrido[4,3-b][1,4]oxazin-8-yl)benzonitrile] |
| 559 nM | 16.8 nM | N#Cc1ccc(-c2cncc3c2OCCN3C(=O)Cc2ccc(Cl)cc2)cc1 [O38, 4-(4-(2-(4-Chlorophenyl)acetyl)-3,4-dihydro-2H-pyrido[4,3-b][1,4]oxazin-8-yl)benzonitrile] |
| 18 nM | 0.6 nM | N#Cc1ccc(CN2CC(S(=O)(=O)N3CCSc4c(-c5ccc(C#N)cc5)cncc43)C2)cc1 [S80, 4-(4-((1-(4-Cyanobenzyl)azetidin-3-yl)sulfonyl)-3,4-dihydro-2H-pyrido[4,3-b][1,4]thiazin-8-yl)benzonitrile] |
| 468 nM | 10.3 nM | COc1ccc(S(=O)(=O)N2CCSc3c(-c4ccc(C(F)(F)F)cc4)cncc32)cc1 [S32, 4-((4-methoxyphenyl)sulfonyl)-8-(4-(trifluoromethyl)phenyl)-3,4-dihydro-2H-pyrido[4,3-b][1,4]thiazine] |
| 973 nM | 29 nM | N#Cc1cccc(-c2cncc3c2CCN3C(=O)c2ccccc2F)c1 [C55, 3-(1-(2-Fluorobenzoyl)-2,3-dihydro-1H-pyrrolo[2,3-c]pyridin-4-yl)benzonitrile] |
| 0.41 nM | 0.2 nM | CS(=O)(=O)N1CCOc2c(-c3ccc(C#N)cc3)cncc21 [O14, 4-(4-(Methylsulfonyl)-3,4-dihydro-2H-pyrido[4,3-b][1,4]oxazin-8-yl)benzonitrile] |
| 54 nM | 3.1 nM | N#Cc1ccc(-c2cncc3c2OCCN3S(=O)(=O)C2CN(S(=O)(=O)c3ccc(F)cc3)C2)cc1 [O116, 4-(4-((1-((4-Fluorophenyl)sulfonyl)azetidin-3-yl)sulfonyl)-3,4-dihydro-2H-pyrido[4,3-b][1, 4]oxazin-8-yl)benzonitrile] |
| 12 nM | 0.7 nM | N#Cc1ccc(-c2cncc3c2SCCN3S(=O)(=O)C2CN(S(=O)(=O)c3cccc(F)c3)C2)cc1 [S75, 4-(4-((1-((3-Fluorophenyl)sulfonyl)azetidin-3-yl)sulfonyl)-3,4-dihydro-2H-pyrido[4,3-b][1,4]thiazin-8-yl)benzonitrile] |
| 1.2 nM | 0.3 nM | N#Cc1ccc(-c2cncc3c2CCN3S(=O)(=O)c2cccc(F)c2)cc1 [C6, 4-(1-((3-Fluorophenyl)sulfonyl)-2,3-dihydro-1H-pyrrolo[2,3-c]pyridin-4-yl)benzonitrile] |
| 137 nM | 2.9 nM | N#Cc1ccc(-c2cncc3c2OCCN3C(=O)C2CN(Cc3ccc(F)cc3)C2)cc1 [O79, 4-(4-(1-(4-Fluorobenzyl)azetidine-3-carbonyl)-3,4-dihydro-2H-pyrido[4,3-b][1,4]oxazin-8-yl)benzonitrile] |
| 38 nM | 4.2 nM | COc1cccc(S(=O)(=O)N2CC(S(=O)(=O)N3CCOc4c(-c5ccc(C#N)cc5)cncc43)C2)c1 [O119, 4-(4-((1-((3-Methoxyphenyl)sulfonyl)azetidin-3-yl)sulfonyl)-3,4-dihydro-2H-pyrido[4,3-b][1,4]oxazin-8-yl)benzonitrile] |
| 2.2 nM | 0.05 nM | N#Cc1ccc(-c2cncc3c2SCCN3S(=O)(=O)c2ccc(Cl)cc2)cc1 [S15, 4-(4-((4-Chlorophenyl)sulfonyl)-3,4-dihydro-2H-pyrido[4,3-b][1,4]thiazin-8-yl)benzonitrile] |
| 409 nM | 372 nM | Cn1c(=O)c(=O)[nH]c2cncc(-c3ccc(C#N)cc3)c21 [N1, 4-(1-Methyl-2,3-dioxo-1,2,3,4-tetrahydropyrido[3,4-b]pyrazin-8-yl)benzonitrile] |
| 79 nM | 0.8 nM | N#Cc1ccc(-c2cncc3c2ccn3C(=O)c2cccc(C(F)(F)F)c2)cc1 [E23, 4-(1-(3-(Trifluoromethyl)benzoyl)-1H-pyrrolo[2,3-c]pyridin-4-yl)benzonitrile] |
| 6.5 nM | 0.39 nM | N#Cc1ccc(-c2cncc3c2OCCN3S(=O)(=O)c2cccc3ccccc23)cc1 [O17, 4-(4-(Naphthalen-1-ylsulfonyl)-3,4-dihydro-2H-pyrido[4,3-b][1,4]oxazin-8-yl)benzonitrile] |
| 219 nM | 35 nM | N#CN1CC=C(c2cncc3c2OCCN3C(=O)C2CN(Cc3cccc(F)c3)C2)CC1 [O97, 4-(4-(1-(3-Fluorobenzyl)azetidine-3-carbonyl)-3,4-dihydro-2H-pyrido[4,3-b][1,4]oxazin-8-yl)-3,6-dihydropyridine-1 (2H)-carbonitrile] |
| 2670 nM | 25 nM | N#CC1CN(S(=O)(=O)N2CCSc3c(-c4cc5cc(Cl)ccc5o4)cncc32)C1 [S101, 1-((8-(5-Chlorobenzofuran-2-yl)-2,3-dihydro-4H-pyrido[4,3-b][1,4]thiazin-4-yl)sulfonyl) azetidine-3-carbonitrile] |
| 438 nM | 15 nM | N#Cc1ccc2[nH]c(-c3cncc4c3CCN4C(=O)C3CN(Cc4cccc(F)c4)C3)cc2c1 [C81, 2-(1-(1-(3-Fluorobenzyl)azetidine-3-carbonyl)-2,3-dihydro-1H-pyrrolo[2,3-c]pyridin-4-yl)-1H-indole-5-carbonitrile] |
| 57 nM | 0.4 nM | N#Cc1ccc(-c2cncc3c2OCCN3S(=O)(=O)C2CC(c3cccc(C#N)c3)=NO2)cc1 (stereo not shown) [O101, 3-(5-((8-(4-Cyanophenyl)-2,3-dihydro-4H-pyrido[4,3-b][1,4]oxazin-4-yl)sulfonyl)-4,5-dihydroisoxazol-3-yl)benzonitrile] |
| 197 nM | 2.3 nM | N#Cc1ccc(-c2cncc3c2OCCN3S(=O)(=O)C2CN(c3ccc(F)cc3)C2)cc1 [O127, 4-(4-((1-(4-Fluorophenyl)azetidin-3-yl)sulfonyl)-3,4-dihydro-2H-pyrido[4,3-b][1,4]oxazin-8-yl)benzonitrile] |
